Experimental findings from patent US20240415972A1, “MICROFRAGMENTED FAT TISSUE AS DRUG DELIVERY SYSTEM IN LIVER CANCER THERAPY” (LIPOGEMS INTERNATIONAL S.P.A., priority 2021, published 2024) are described below.

One series has as its system Hep-3B cells. As to the kind of experiment: PTX anti-proliferative activity on Hep-3B cells in culture. The class given is cell-based, human. The procedure:
In (A) PTX at different concentration from 0.1 to 1000 ng/ml was added to cultured Hep-3B cells After 72 hours of incubation cells were detached and counted. […] In (B) photographs (10× magnification) of Hep-3B cultured in presence of PTX showing its potent growth inhibition at concentration up to 25 ng/ml are reported.
To this end, different concentration of PTX (from 0.1 ng/ml to 1000 ng/ml) were added to culture medium.

The test system of another series is MIB-1/Ki67. As to the kind of experiment: Immunohistochemistry of proliferation marker MIB-1/Ki67 in Hep-3B tumor of treated mice. The class given is in vivo, athymic nude-Foxn1nu mice. The conditions noted are these: DMFAT-PTX at both dosages; free PTX 10 mg/kg. The procedure:
After evaluation of conventional H&E stained, ten white sections were then obtained from each sample to be processed for immunohistochemical (IHC) staining. IHC was carried out automatically by means of Leica Bond MaxTM technology (Arginase, CK-PAN, CK7 and ANTI-EPATO) and Ventana Bench Mark Ultra (Ki-67): ANTI-HEPATO: antigen retrieval 30' EDTA, (dil. 1:300 clone […] Dako-Agilent); […] antigen retrieval 30' EDTA, (dil. 1:100 Clone SP156 Cell Marque […]. clone 30-9 Roche-Ventana); CK-PAN: antigen retrieval 5' Enzyma, (dil. 1:200 clone MNF116 Dako Agilent); CK-7: antigen retrieval 15' EDTA, dil. 1:100 clone OV-TL 12/20 Dako Agilent. All section stained was evaluated on NIKON ECLIPSE E 600 Microscopy equipped with OLYMPUS DP21 Camera.

A further series relates to Hep-3B tumor. Put plainly: In vivo anti-tumor activity, single-shot local injection next to sc Hep-3B tumor.

SMILES strings stand for the structures. Values after ≈ are worked out from the molar mass of the structure shown. Where two headings read alike, the source gives them in different places.

Turning to `CC(=O)O[C@H]1C(=O)[C@@]2(C)[C@H]([C@H](OC(=O)c3ccccc3)[C@]3(O)C[C@H](OC(=O)[C@H](O)[C@@H](NC(=O)c4ccccc4)c4ccccc4)C(C)=C1C3(C)C)[C@]1(OC(C)=O)CO[C@@H]1C[C@@H]2O` [PTX, Paclitaxel], the “IC50, dose of PTX required to reduce 50% Hep-3B growth” value in the series with Hep-3B cells (72 hours of incubation, cells detached and counted) was found to be 0.015 ± 0.003 µg/mL. Moreover, the IC50 (usually the concentration that gives 50% inhibition) was found to be 0.015 ± 0.002 µg/mL (≈ 0.0176 µM) in the series on Hep-3B cells (Homo sapiens, Hep3B, read-out: IC50, dose of PTX required to reduce 50% Hep-3B growth, 72 hours of incubation, cells detached and counted); 0.015 µg/mL (≈ 0.0176 µM) with Hep-3B cells (Homo sapiens, Hep3B, restated for comparison with tissue concentrations, read-out: IC50 of the PTX on Hep-3B cells). Besides, in the series on Hep-3B cells (Homo sapiens, Hep3B, read-out: IC90, dose of PTX required to reduce 90% Hep-3B growth, 72 hours of incubation, cells detached and counted), the concentration for an effect of 90% (IC90) (as a rule, the concentration at which the effect reaches the 90% level) turned out to be 0.025 ± 0.008 µg/mL (≈ 0.0293 µM). For the same compound, the “Ki67 expression in tumor” value in the series with MIB-1/Ki67 was “Some reduction”. Besides, the “Skin lesions / ulceration at the site of injection” value with Hep-3B tumor (10 mg/kg (200 μg/200 μl), local sc injection) is given as “did not induce skin ulcers”. The “Effect on tumor growth compared to CTRL” value in the series with Hep-3B tumor (series A: 200 μl, PTX 10 mg/kg where present) was “No significant effect”. Moreover, the “% of mice cured” value with Hep-3B tumor (series A: PTX 200 μg (10 mg/kg) where present, tumor-free after 90 days) is 0%. This compound also showed a Day of sacrifice in the series on Hep-3B tumor (series A: single shot 200 μl, PTX 200 μg (10 mg/kg) where present) of 33 ± 3. In addition, in the series with Hep-3B tumor (series A: single shot 200 μl, PTX 200 μg (10 mg/kg) where present, at 60 days), the “% of mice tumor-free” value was determined as 0%. The “HCC (TW) (Grams ± SD)” value in the series on Hep-3B tumor (series A: single shot 200 μl, PTX 200 μg (10 mg/kg) where present, tumor weight at sacrifice) is 2.010 ± 0.377 Grams.
